Assay results reported in patent US11130741B2 (Bioimics AB, priority 2016, dated 2021).
pIC50: −log10 of the molar value. In brackets after ≈: the same amount, converted by molar mass.

Assays:
[1] = test system: Escherichia coli (ATCC25922); assay: MIC, broth microdilution (CLSI), Escherichia coli ATCC25922; conditions: ATCC25922, read-out: E. coli MIC, Table 15, NI = No inhibition
Protocol: Initial minimal inhibitory concentration (MIC) tests were made on two bacterial strains: • Escherichia coli (ATCC25922) • Staphylococcus aureus (ATCC25923).
Minimal Inhibitory Concentration (MIC)
MIC values were determined using the standard broth microdilution procedure based on the guidelines by the Clinical and Laboratory Standards Institute (CLSI). Briefly, the compounds were dissolved in DMSO to 10 mM. They were diluted in cation-adjusted Mueller-Hinton broth (CAMHB) to four times the highest concentration tested. A serial 2-fold dilution in CAMHB was done in microdilution plates. The inoculum of bacterial strain to be tested was prepared by making a suspension of colonies from an 18 to 24 hours old plate in CAMHB. The inoculum was diluted so that, after inoculation, each well contained approximately 5×10^5 CFU/mL. To a volume of 50 μl compound in CAMHB an equal volume of inoculum was added. The tray was sealed in a plastic bag and incubated at 35° C. for 16 to 20 hours. To aid in the detection of growth the dye resazurin was added to a final concentration 0.001% and incubated at room temperature for 1 h. Reduction of resazurin, and therefore bacterial growth, was seen as a change from blue to pink.

[2] = test system: E. coli RNase P RNA, M1 RNA; assay: Inhibition of bacterial RNase P activity, IC50 determination (cleavage of pATSerUG by M1 RNA); assay type: biochemical; conditions: NI = No inhibition
[3] = test system: Staphylococcus aureus (ATCC25923); assay: MIC, broth microdilution (CLSI), Staphylococcus aureus ATCC25923; conditions: ATCC25923, read-out: S. aureus ("Clinical") MIC

| Compound | MIC [1] [µg/mL] | pIC50 [2] | MIC [3] [µg/mL] |
| --- | --- | --- | --- |
| CN1c2ccccc2Sc2cc(C(F)(F)F)cc(NC3CCN(CCN)CC3)c21 [compound 218, N-(1-(2-aminoethyl)piperidin-4-yl)-10-methyl-3-(trifluoromethyl)-10H-phenothiazin-1-amine] | 7 (≈ 16.6 µM) | 4.17 | 7 (≈ 16.6 µM) |
| NCCN1CCC(Nc2cc3c(c(C(F)(F)F)c2)Nc2ccccc2S3)CC1 [compound 252, N-(1-(2-aminoethyl)piperidin-4-yl)-1-(trifluoromethyl)-10H-phenothiazin-3-amine] | 26 (≈ 63.6 µM) | 5.05 | 7 (≈ 17.1 µM) |
| O=C(Nc1cc(C(F)(F)F)cc2c1Nc1ccccc1S2)[C@@H]1CCCNC1 [compound 100, (R)-N-(3-(trifluoromethyl)-10H-phenothiazin-1-yl)piperidine-3-carboxamide] | 32 (≈ 81.3 µM) | < 4.00 | 16 (≈ 40.7 µM) |
| CN(C)CCCN1c2ccccc2Sc2cc(C(F)(F)F)cc(NC(N)=S)c21 [compound 87, 1-(10-(3-(Dimethylamino)propyl)-3-(trifluoromethyl)-10H-phenothiazin-1-yl)thiourea] | > 100 | < 4.00 | 55 (≈ 129 µM) |
| CN(C)CCCN1c2ccccc2Sc2cc(-c3ccnc(F)c3)ccc21 [compound 122, 3-(3-(2-fluoropyridin-4-yl)-10H-phenothiazin-10-yl)-N,N-dimethylpropan-1-amine] | > 100 | < 4.00 | 24 (≈ 63.2 µM) |
| NCCN1CCC(Nc2cc(Cl)cc3c2Nc2ccccc2S3)CC1 [compound 214, N-(1-(2-aminoethyl)piperidin-4-yl)-3-chloro-10H-phenothiazin-1-amine] | 24 (≈ 64 µM) | < 4.00 | 12 (≈ 32 µM) |
| NCCN1CCC(Nc2cc(C(F)(F)F)cc3c2Nc2ccccc2O3)CC1 [compound 206, N-(1-(2-aminoethyl)piperidin-4-yl)-3-(trifluoromethyl)-10H-phenoxazin-1-amine] | 50 (≈ 127 µM) | 4.05 | 25 (≈ 63.7 µM) |
| CN(C)CCCN1c2ccccc2Sc2cc(Cl)cc(N)c21 [compound 89, 3-chloro-10-(3-(dimethylamino)propyl)-10H-phenothiazin-1-amine] | > 100 | < 4.00 | 85 (≈ 255 µM) |
| O=C(CCN1CCNCC1)Nc1cc(C(F)(F)F)cc2c1Nc1ccccc1S2 [compound 101, 3-(piperazin-1-yl)-N-(3-(trifluoromethyl)-10H-phenothiazin-1-yl)propanamide] | 64 (≈ 151 µM) | < 4.00 | 32 (≈ 75.7 µM) |
| Clc1cc(NC2CCNCC2)c2c(c1)Sc1ccccc1N2 [compound 184, 3-chloro-N-(piperidin-4-yl)-10H-phenothiazin-1-amine] | 21 (≈ 63.3 µM) | 4.96 | 5 (≈ 15.1 µM) |
| Nc1cc(C(F)(F)F)cc2c1N(CCCN1CCNCC1)c1ccccc1S2 [compound 83, 10-(3-(piperazin-1-yl)propyl)-3-(trifluoromethyl)-10H-phenothiazin-1-amine] | > 100 | < 4.00 | 32 (≈ 78.3 µM) |
| FC(F)(F)c1cc(NC2CCNC2)c2c(c1)Sc1ccccc1N2 (stereo not drawn) [compound 174, N-(pyrrolidin-3-yl)-3-(trifluoromethyl)-10H-phenothiazin-1-amine] | 11 (≈ 31.3 µM) | 4.30 | 3 (≈ 8.54 µM) |
| CN(C)CCCN1c2ccccc2Sc2cc(-c3nc4ccccc4s3)ccc21 [compound 143, 3-(3-(Benzo[d]thiazol-2-yl)-10H-phenothiazin-10-yl)-N,N-dimethylpropan-1-amine] | > 100 | < 4.00 | 3 (≈ 7.18 µM) |
| O=C(CC1(O)CCC(F)(F)CC1)Nc1cc(C(F)(F)F)cc2c1Nc1ccccc1S2 [compound 115, 2-(4,4-difluoro-1-hydroxycyclo-hexyl)-N-(3-(trifluoromethyl)-10H-phenothiazin-1-yl)acetamide] | > 100 | < 4.00 | 7 (≈ 15.3 µM) |
